Results on 4 compounds are retold here after EP0079675A1, “Oxazolidinedione derivatives” (PFIZER INC., priority 1981, dated 1983).

Assay [1] concerns the target T1, aldose reductase enzyme obtained from calf lens (Bos taurus, UniProt P16116).
T1 construct: partially purified aldose reductase enzyme obtained from calf lens; from tissue; host or cells: calf lens
As to the kind of experiment: inhibition of aldose reductase enzyme activity (procedure of S. Hayman et al., modified by K. Sestanj et al.). It counts as biochemical. The following applies: partially purified calf lens aldose reductase, read-out: Percent Inhibition (%); for inhibition at 10 µM: 10^-5M; for inhibition at 1 µM: 10^-6M; for inhibition at 0.1 µM: 10^-7M. How it is done:
(§1) The activity of the compounds of the present invention, as agents for the control of chronic diabetic complications, is determined by their ability to successfully pass one or more of the following standard biological or pharmacological tests, viz., (1) measuring their ability to inhibit the enzyme activity of isolated aldose reductase; (2) measuring their ability to reduce or inhibit sorbitol accumulation in the sciatic nerve of acutely streptozotocinized (i.e., diabetic) rats; (3) measuring their ability to reverse already-elevated sorbitol levels in the sciatic nerve and lens of chronic streptozotocin-induced diabetic rats; (4) measuring their ability to prevent or inhibit galactitol formation in the lens of acutely galactosemic rats, and (5) measuring their ability to delay cataract formation and reduce the severity of lens opacities in chronic galactosemic rats.
The following s^piro-oxindole oxazolidinedione final products of Examples 1-4, respectively, were tested for their ability to reduce or inhibit aldose reductase enzyme activity via the procedure of S. Hayman et al., as described in the Journal of Biological Chemistry, Vol 240, p.. 877 (1965) and as modified by K. Sestanj et al. in U.S. Patent No. 3,821,383. In every case, the substrate employed was partially purified aldose reductase enzyme obtained from calf lens.

In assay [2] the test system is sorbitol levels in diabetic rats. The assay can be described thus: inhibition of sorbitol formation/accumulation in diabetic rats. It counts as in vivo. Particulars: oral route, dose levels ranging from 0.5 mg./kg. to 20 mg./kg.
Description: As previously indicated, the spiro-oxindole oxazolidinedione compounds of this invention are readily adapted to therapeutic use as aldose reductase inhibitors for the control of chronic diabetic com^pli- cations, in view of their ability to reduce lens sorbitol levels in diabetic subjects to a statistically significant degree. […] Furthermore, the herein described compounds of this invention can be administered by either the oral or parenteral routes of administration. […]
as §1

Usually inhibition stands for the change of the read-out against control, counted positive when it falls. On to `CN1C(=O)C2(OC(=O)NC2=O)c2cc(Cl)ccc21` (centres unmarked) [Product of Example 3], for which, in assay [1], the inhibition at 10 µM turned out to be 67%, the inhibition at 1 µM turned out to be 31% and the inhibition at 0.1 µM worked out at 10%.
In the case of `O=C1NC(=O)C2(O1)C(=O)N(c1ccc(F)cc1)c1ccc(F)cc12` (centres unmarked) [Product of Example 1, 1-(p-fluorophenyl)-5-fluoro-spiro-[indoline-3,5-oxazolidine]-2,2',4'-trione], in assay [1], the inhibition at 10 µM is 87%, the inhibition at 1 µM came to 65% and the inhibition at 0.1 µM was 25%.
As for `O=C1NC(=O)C2(O1)C(=O)N(Cc1ccc(Cl)cc1)c1ccc(Cl)cc12` (centres unmarked) [Product of Example 4, 1-(p-chlorobenzyl)-5-chloro-spiro-(indoline-3,5'-oxazolidine]-2,2',4'-trione], in assay [1] (10^-4M), the inhibition at 100 µM was 100%. In addition, in assay [1], the inhibition at 10 µM was found to be 89%, the inhibition at 1 µM came to 81% and the inhibition at 0.1 µM stood at 60%. Besides, in assay [2], the “inhibit the formation of sorbitol levels” value is listed as “to a significantly high degree”.
Consider `CC(C)N1C(=O)C2(OC(=O)NC2=O)c2cc(Cl)ccc21` (centres unmarked) [Product of Example 2, 1-isopropyl-5-chloro-s^piro-[indoline-3,5'-oxazolidine]-2,2',4'-trione], for which, in assay [1], the inhibition at 10 µM worked out at 80%, the inhibition at 1 µM is 45% and the inhibition at 0.1 µM came to 17%.
